Reference: ChEMBL document CHEMBL1126027, “Oxidation chemistry and biochemistry of the central mammalian alkaloid 1-methyl-6-hydroxy-1,2,3,4-tetrahydro-beta-carboline” (1992)

What was measured:
Assay type in all cases: functional
[1] = species: Mus musculus; experiment: Effect on whole mouse brain acetylcholine level after 1 day (control = 100+/-8)
[2] = species: Mus musculus; experiment: Effect on whole mouse brain 5-hydroxyindoleacetic acid level after 1 day (control = 100+/-6)
[3] = species: Mus musculus; experiment: Effect on whole mouse brain norepinephrine level after 1 day (control = 100+/-5)
[4] = species: Mus musculus; experiment: Effect on whole mouse brain homovanillic acid level after 1 day (control = 100+/-4)
[5] = species: Mus musculus; experiment: Effect on whole mouse brain DOPAC level after 1 day (control = 100+/-4)
[6] = species: Mus musculus; experiment: Effect on whole mouse brain choline level after 1 day (control = 100+/-1)
[7] = species: Mus musculus; experiment: Effect on whole mouse brain dopamine level after 1 day (control = 100+/-3)
[8] = species: Mus musculus; experiment: Effect on whole mouse brain 5-HT acid level after 1 day (control = 100+/-3)
[9] = species: Mus musculus; experiment: Effect on whole mouse brain choline level after 1 day (control = 100+/-9)
[10] = species: Mus musculus; experiment: Effect on whole mouse brain DOPAC level after 1 week (control = 100+/-9)
[11] = species: Mus musculus; experiment: Effect on whole mouse brain acetylcholine level after 1 day (control = 100+/-5)
[12] = species: Mus musculus; experiment: Effect on whole mouse brain norepinephrine level after 1 day (control = 100+/-3)
[13] = species: Mus musculus; experiment: Effect on whole mouse brain 5-HT acid level after 1 week (control = 100+/-9)
[14] = species: Mus musculus; experiment: Effect on whole mouse brain dopamine level after 3h (control = 100+/-3)
[15] = species: Mus musculus; experiment: Effect on whole mouse brain norepinephrine level after 1 week (control = 100+/-10)
[16] = species: Mus musculus; experiment: Effect on whole mouse brain homovanillic acid level after 1 week (control = 100+/-5)
[17] = species: Mus musculus; experiment: Effect on whole mouse brain choline level after 3h (control = 100+/-5)
[18] = species: Mus musculus; experiment: Effect on whole mouse brain choline level after 1 week (control = 100+/-9)
[19] = species: Mus musculus; experiment: Effect on whole mouse brain DOPAC level after 3h (control = 100+/-11)
[20] = species: Mus musculus; experiment: Effect on whole mouse brain acetylcholine level after 1 week (control = 100+/-13)
[21] = species: Mus musculus; experiment: Effect on whole mouse brain homovanillic acid level after 3h (control = 100+/-6)
[22] = species: Mus musculus; experiment: Effect on whole mouse brain 5-hydroxyindoleacetic acid level after 1 week (control = 100+/-10)
[23] = species: Mus musculus; experiment: Effect on whole mouse brain 5-hydroxyindoleacetic acid level after 1 day (control = 100+/-5)
[24] = species: Mus musculus; experiment: Effect on whole mouse brain norepinephrine level after 3h (control = 100+/-8)
[25] = species: Mus musculus; experiment: Effect on whole mouse brain dopamine level after 1 week (control = 100+/-10)
[26] = species: Mus musculus; experiment: Effect on whole mouse brain 5-HT acid level after 1 day (control = 100+/-2)
[27] = species: Mus musculus; experiment: Effect on whole mouse brain acetylcholine level after 3h (control = 100+/-5)
[28] = species: Mus musculus; experiment: Effect on whole mouse brain 5-HT acid level after 3h (control = 100+/-6)
[29] = species: Mus musculus; experiment: Effect on whole mouse brain DOPAC level after 1 day (control = 100+/-6)
[30] = species: Mus musculus; experiment: Effect on whole mouse brain homovanillic acid level after 1 day (control = 100+/-3)
[31] = species: Mus musculus; experiment: Effect on whole mouse brain 5-hydroxyindoleacetic acid level after 3h (control = 100+/-14)

CC1NCCc2c1[nH]c1ccc(O)c(-c3c(O)ccc4[nH]c5c(c34)CCNC5C)c21 (stereo in doubt; 6)
Control [1]: 73%
Control [2]: 163%
Control [3]: 104%
Control [4]: 132%
Control [5]: 101%
Control [6]: 97%
Control [7]: 96%
Control [8]: 107%

CC1NCCc2c1[nH]c1ccc(O)c(-c3c(O)ccc4[nH]c5c(c34)CCNC5C)c21 (centres undefined)
Control [9]: 97%
Control [10]: 96%
Control [11]: 78%
Control [12]: 105%
Control [13]: 103%
Control [14]: 98%
Control [15]: 111%
Control [16]: 100%
Control [17]: 83%
Control [18]: 107%
Control [19]: 81%
Control [20]: 94%
Control [21]: 90%
Control [22]: 99%
Control [23]: 135%
Control [24]: 93%
Control [25]: 98%
Control [26]: 111%
Control [27]: 98%
Control [28]: 107%
Control [29]: 93%
Control [30]: 107%
Control [31]: 86%

CC1NCCc2c1[nH]c1ccc(O)c(-c3c(O)ccc4[nH]c5c(c34)CCNC5C)c21 (stereo in doubt; 5)
Control [1]: 87%
Control [2]: 146%
Control [3]: 102%
Control [4]: 115%
Control [5]: 97%
Control [6]: 77%
Control [7]: 90%
Control [8]: 94%
